Experimental findings from US10457707B2, “Substituted urea depsipeptide analogs as activators of the CLPP endopeptidase” (priority 2015, dated 2019) are described below.

Converted amounts (≈) assume the structure as drawn. Like-named read-outs stand apart in the source and are kept apart here. *1 amine or outer side, *2 acyl side, *3 side chain or, on linkers, in order; H or OH if unused. Where a SMILES comes first, the peptide text is derived from it. Bridges are numbered along the chain shown (N, C = ends). [ ]: non-standard residue; d: D form. The star is where a group is joined. Phe(3,5-F2) = N[C@@H](Cc1cc(F)cc(F)c1)C(=O)O; NH(4-OCF3-phenyl) = FC(F)(F)Oc1ccc(N*)cc1; Morpholine(3S-CO) = O=C(O)[C@@H]1COCCN1; Pro(4S-Me) = C[C@@H]1CN[C@H](C(=O)O)C1; Pro(4R-Me) = C[C@H]1CN[C@H](C(=O)O)C1; NMeaThr = CN[C@H](C(=O)O)[C@H](C)O; Hyp = O=C(O)[C@@H]1C[C@@H](O)CN1; NH(4-Et-phenyl) = CCc1ccc(N*)cc1; NH(4-Me-phenyl) = Cc1ccc(N*)cc1; aThr = C[C@H](O)[C@H](N)C(=O)O; Pip = O=C(O)[C@@H]1CCCCN1; X1 = N#Cc1cc(N*)ccc1F; CO = O=C([*:1])[*:2] Bounds are passed on as bounds.

One experiment has as its target T1, Sa-ClpP (Staphylococcus aureus, UniProt Q2G036).
T1 construct: made in house; host or cells: E. coli BL21(DE3)
T1 sequence (Q2G036 1-195): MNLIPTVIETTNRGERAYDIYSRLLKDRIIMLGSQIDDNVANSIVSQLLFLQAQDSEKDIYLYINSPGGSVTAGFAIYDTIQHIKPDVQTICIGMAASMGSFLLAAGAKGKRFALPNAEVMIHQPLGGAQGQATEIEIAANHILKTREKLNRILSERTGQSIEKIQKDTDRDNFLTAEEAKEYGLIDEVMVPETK
In words: Sa-ClpP casein-BODIPY ClpP activation assay, method variant not marked in Table 5. In kind it is biochemical, S. aureus. As for the experimental part:
The compounds were assayed in a casein digestion assay in order to determine their effect on ClpP activation. Briefly, the assay was carried out using S. aureus ClpP (“Sa-ClpP”) overexpressed in E. coli BL21(DE3) and purified in a two-step process. Purity of the protein was assessed through SDS PAGE analysis. EC50 evaluations were conducted in triplicate in a 20 μl assay format using a method adapted from Maurizi et al. (Methods Enzymol. (1994) 244:314-331). Each well contained 10 μM saClpP, 25 μg/ml BODIPY FL casein (Invitrogen Corporation, San Diego, Calif.), and test compound in concentrations ranging between 0-1000 μM in assay buffer (50 mM Tris pH 8, 200 mM KCl, and 1 mM TCEP). The reaction took place at 37° C. Fluorescence (excitation 485 nm; emission 528 nm) was measured in five minute intervals over a 45 min period using a BioTek HT fluorescence microplate reader (BioTek Instruments, Inc., Winooski, Vt.). Velocity of each reaction was calculated and data was fit to a dose response curve using GraphPad Prism® software (GraphPad Software, Inc., La Jolla, Calif.). EC50 is the effective concentration of compound which causes 50% activation of S. aureus ClpP in the foregoing BODIPY FL casein assay.
Alternatively, the assay was carried out using EnzCheck Protease Assay (Molecular Probes, Catalog # E6638). The assay was performed in black 384 well, flat bottom, low volume plates (Greiner Bio-One, Monroe, N.C., catalog #784076). 10 μL of Tris*HCl buffer, pH 8.0 with 0.01% Triton X-100 was pipetted into each well using a Well-Mate (Thermo Scientific, Waltham, Mass.). 0.4 μL test compounds or controls (2% DMSO v/v) were added to each well using a Biomek FX liquid handling robot (Beckman Coulter, Indianapolis Ind.). After addition of test compounds and controls, 10 μL of master mix containing 2 μM Sa-ClpP and 2 μM substrate (Bodipy-FL labeled casein) in Tris*HCl buffer, pH 8.0 with 0.01% (v/v) Triton X-100, was pipetted into each well. All assays were performed in triplicate, under linear velocity conditions. Increase in fluorescent signal following activation of Sa-ClpP by test compounds and controls was measured over time period of 30 mins using filters with excitation at 485±15 nm and emission at 520±25 nm on a PHERAstar FS Multilabel reader (BMG, Cary, N.C.). […] Data analysis was done by measuring rate of casein degradation over time (slopes). Computed degradation rates (slopes) were normalized to positive (ADEP4) or negative (DMSO) controls. Using nonlinear regression curve fitting EC50 values and % activation were determined using the equation “log [agonist] vs. Response-variable slope (four parameters)-symmetrical” in the program Prism 6 (GraphPad Software, La Jolla, Calif. USA, www.graphpad.com).
Substituted urea depsipetide analogs were synthesized as described above. The EC50 for ClpP activation was determined in the Sa-ClpP in casein-BODIPY assay as described above. The IC50 for ADEP displacement was determined in the ADEP displacement fluorescent polarization assay as described above; and the IC50 for growth inhibition was determined in the Vero cell cytotoxicity assay as described above. The compound number corresponds to the compound numbers used in Tables 1-4 and the experimental examples described above.

The test system of experiment [1] is Enterococcus faecalis, ATCC 33186. In words: Minimal inhibitory concentration assay (microbroth dilution). In kind it is cell-based. In outline: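 Broth microdilution per CLSI M7-A7: two-fold serial dilutions of compound in broth (top final concentration 200 μM) were inoculated with ~10^5 cfu/mL bacteria and incubated aerobically overnight at 37 °C. MIC was read visually as the lowest concentration preventing growth.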

[2] abbreviates: values without ** or † mark, assay variant not stated, read-out: ClpP Activation EC50.
Setting [3] is: Enterococcus faecalis, ATCC33186; read-out: Minimal Inhibitory Concentrations E. faecalis ATCC 33186.
Where [4] appears, read: Enterococcus faecalis, ATCC33186, read-out: Minimal Inhibitory Concentrations E. faecalis ATCC 33186.

`C[C@H]1C[C@H]2C(=O)O[C@@H](C)[C@H](NC(=O)[C@H](Cc3cc(F)cc(F)c3)NC(=O)Nc3ccc(OC(F)(F)F)cc3)C(=O)N3CCC[C@H]3C(=O)N3CCOC[C@H]3C(=O)N[C@@H](C)C(=O)N2C1` [Compound 201, (S)-3-(3,5-difluorophenyl)-2-(3-(4-(trifluoromethoxy)phenyl)ureido)-N-((6aS,12S,13S,15aS,17S,21S,23aS)-13,17,21-trimethyl-6,11,15,20,23-pentaoxooctadecahydro-6H,11H,15H-[1,4]oxazino[3,4-i]dipyrrolo[2,1-c:2′,1′-l][1]oxa[4,7,10,13]tetraazacyclohexadecin-12-yl)propanamide] ({NH(4-OCF3-phenyl)-CO}-[Phe(3,5-F2)][aThr]P[Morpholine(3S-CO)]A[Pro(4S-Me)]; ester 2-C): the EC50 on Sa-ClpP (setting [2]) worked out at 330 ± 10 nM. For the same molecule, in experiment [1] (setting [3]), the MIC came to 0.098 µM (≈ 0.0862 µg/mL).

`Cc1ccc(NC(=O)N[C@@H](Cc2cc(F)cc(F)c2)C(=O)N[C@@H]2C(=O)N3CCC[C@H]3C(=O)N(C)[C@@H]([C@H](C)O)C(=O)N[C@@H](C)C(=O)N3C[C@@H](C)C[C@H]3C(=O)O[C@H]2C)cc1` [Compound 202, (S)-3-(3,5-difluorophenyl)-N-((2S,6S,9S,11aS,17S,18S,20aS)-9-((S)-1-hydroxyethyl)-2,6,10,18-tetramethyl-5,8,11,16,20-pentaoxohexadecahydro-1H,5H,16H-dipyrrolo[2,1-c:2′,1′-L][1]oxa[4,7,10,13]tetraazacyclohexadecin-17-yl)-2-(3-(p-tolyl)ureido)propanamide] ({NH(4-Me-phenyl)-CO}-[Phe(3,5-F2)][aThr]P[NMeaThr]A[Pro(4S-Me)]; ester 2-C): on Sa-ClpP (setting [2]), the EC50 was determined as 480 ± 30 nM. In experiment [1] (setting [4]), the MIC was 0.049 µM (≈ 0.0398 µg/mL).

`C[C@H]1C[C@H]2C(=O)O[C@@H](C)[C@H](NC(=O)[C@H](Cc3cc(F)cc(F)c3)NC(=O)Nc3ccc(OC(F)(F)F)cc3)C(=O)N3CCC[C@H]3C(=O)N(C)[C@@H]([C@H](C)O)C(=O)N[C@@H](C)C(=O)N2C1` [Compound 203, (S)-3-(3,5-difluorophenyl)-N-((2S,6S,9S,11aS,17S,18S,20aS)-9-((S)-1-hydroxyethyl)-2,6,10,18-tetramethyl-5,8,11,16,20-pentaoxohexadecahydro-1H,5H,16H-dipyrrolo[2,1-c:2′,1′-l][1]oxa[4,7,10,13]tetraazacyclohexadecin-17-yl)-2-(3-(4-(trifluoromethoxy)phenyl)ureido)propanamide] ({NH(4-OCF3-phenyl)-CO}-[Phe(3,5-F2)][aThr]P[NMeaThr]A[Pro(4S-Me)]; ester 2-C): the EC50 on Sa-ClpP (setting [2]) came to 430 ± 10 nM. Further, in experiment [1] (setting [3]), the MIC is 0.781 µM (≈ 0.689 µg/mL).

On to `CCc1ccc(NC(=O)N[C@@H](Cc2cc(F)cc(F)c2)C(=O)N[C@@H]2C(=O)N3CCC[C@H]3C(=O)N(C)[C@@H]([C@H](C)O)C(=O)N[C@@H](C)C(=O)N3C[C@@H](C)C[C@H]3C(=O)O[C@H]2C)cc1` [Compound 204, (S)-3-(3,5-difluorophenyl)-2-(3-(4-ethylphenyl)ureido)-N-((2S,6S,9S,11aS,17S,18S,20aS)-9-((S)-1-hydroxyethyl)-2,6,10,18-tetramethyl-5,8,11,16,20-pentaoxohexadecahydro-1H,5H,16H-dipyrrolo[2,1-c:2′,1′-l][1]oxa[4,7,10,13]tetraazacyclohexadecin-17-yl)propanamide] ({NH(4-Et-phenyl)-CO}-[Phe(3,5-F2)][aThr]P[NMeaThr]A[Pro(4S-Me)]; ester 2-C), for which the EC50 at Sa-ClpP (setting [2]) came out at 350 ± 10 nM. Also, the MIC in experiment [1] (setting [3]) was 0.195 µM (≈ 0.161 µg/mL).

As for `Cc1ccc(NC(=O)N[C@@H](Cc2ccccc2)C(=O)N[C@H]2COC(=O)[C@@H]3C[C@@H](C)CN3C(=O)[C@H](C)NC(=O)[C@@H]3CCCCN3C(=O)[C@@H]3CCCN3C2=O)cc1C` [Compound 206, (S)—N-((2R,6S,8aS,14aS,20S,23aS)-2,6-dimethyl-5,8,14,19,23-pentaoxooctadecahydro-1H,5H,14H,19H-pyrido[2,1-i]dipyrrolo[2,1-c:2′,1′-l][1]oxa[4,7,10,13]tetraazacyclohexadecin-20-yl)-2-(3-(3,4-dimethylphenyl)ureido)-3-phenylpropanamide], on Sa-ClpP (setting [2]), the EC50 turned out to be 1600 ± 300 nM. Also, in experiment [1] (setting [4]), the MIC is less than 0.2 µM.

Regarding `Cc1ccc(NC(=O)N[C@@H](Cc2cc(F)cc(F)c2)C(=O)N[C@H]2COC(=O)[C@@H]3C[C@@H](C)CN3C(=O)[C@H](C)NC(=O)C3CCCCN3C(=O)[C@@H]3C[C@@H](O)CN3C2=O)cc1` (stereo partly drawn) [Compound 323, (S)-3-(3,5-difluorophenyl)-N-((2R,6S,8aR,14aS,16R,20S,23aS)-16-hydroxy-2,6-dimethyl-5,8,14,19,23-pentaoxooctadecahydro-1H,5H,14H,19H-pyrido[2,1-i]dipyrrolo[2,1-c:2′,1′-l][1]oxa[4,7,10,13]tetraazacyclohexadecin-20-yl)-2-(3-(p-tolyl)ureido)propanamide], the EC50 at Sa-ClpP (setting [2]) was found to be 670 ± 20 nM.

Take `C[C@@H]1C[C@H]2C(=O)O[C@@H](C)[C@H](NC(=O)[C@H](Cc3cc(F)cc(F)c3)NC(=O)Nc3ccc(F)c(C#N)c3)C(=O)N3CCC[C@H]3C(=O)N3CCCC[C@H]3C(=O)N[C@@H](C)C(=O)N2C1` [Compound 324, (S)-2-(3-(3-cyano-4-fluorophenyl)ureido)-3-(3,5-difluorophenyl)-N-((2R,6S,8aS,14aS,20S,21S,23aS)-2,6,21-trimethyl-5,8,14,19,23-pentaoxooctadecahydro-1H,5H,14H,19H-pyrido[2,1-i]dipyrrolo[2,1-c:2′,1′-l][1]oxa[4,7,10,13]tetraazacyclo-hexadecin-20-yl)propanamide] ({X1-CO}-[Phe(3,5-F2)][aThr]P[Pip]A[Pro(4R-Me)]; ester 2-C): the EC50 at Sa-ClpP came to 500 ± 30 nM.

Turning to `C[C@@H]1C[C@H]2C(=O)OC[C@H](NC(=O)[C@H](Cc3cc(F)cc(F)c3)NC(=O)Nc3ccc4c(c3)OCO4)C(=O)N3C[C@H](O)C[C@H]3C(=O)N3CCCCC3C(=O)N[C@@H](C)C(=O)N2C1` (stereo partly drawn) [Compound 325, (S)-2-(3-(benzo[d][1,3]dioxol-5-yl)ureido)-3-(3,5-difluorophenyl)-N-((2R,6S,8aR,14aS,16R,20S,23aS)-16-hydroxy-2,6-dimethyl-5,8,14,19,23-pentaoxooctadecahydro-1H,5H,14H,19H-pyrido[2,1-i]dipyrrolo[2,1-c:2′,1′-l][1]oxa[4,7,10,13]tetraazacyclo-hexadecin-20-yl)propanamide], the EC50 at Sa-ClpP was 350 ± 20 nM.

Take `C[C@@H]1C[C@H]2C(=O)O[C@@H](C)[C@H](NC(=O)[C@H](Cc3cc(F)cc(F)c3)NC(=O)Nc3ccc(F)c(C#N)c3)C(=O)N3C[C@H](O)C[C@H]3C(=O)N3CCOC[C@H]3C(=O)N[C@@H](C)C(=O)N2C1` [Compound 326, (S)-2-(3-(3-cyano-4-fluorophenyl)ureido)-3-(3,5-difluorophenyl)-N-((6aS,8R,12S,13S,15aS,17R,21S,23aS)-8-hydroxy-13,17,21-trimethyl-6,11,15,20,23-pentaoxooctadecahydro-6H,11H,15H-[1,4]oxazino[3,4-i]dipyrrolo[2,1-c:2′,1′-l][1]oxa[4,7,10,13]tetraazacyclo-hexadecin-12-yl)propanamide] ({X1-CO}-[Phe(3,5-F2)][aThr][Hyp][Morpholine(3S-CO)]A[Pro(4R-Me)]; ester 2-C): the EC50 on Sa-ClpP was 460 ± 40 nM.
